Experimental data as given in patent US20230167088A1, “1-PYRAZINYLPYRAZOLYL-3-OXYALKYL ACIDS AND THEIR DERIVATIVES, AND THEIR USE FOR CONTROL OF UNDESIRED PLANT GROWTH” (BAYER AKTIENGESELLSCHAFT, priority 2020, published 2023).

Experiments:
[1] = system: ALOMY; experiment: Herbicidal pre-emergence action 2a (greenhouse pots, visual scoring); format: in vivo, Alopecurus myosuroides; conditions: dosage 320 g/ha, visual scoring after about 3 weeks
Excerpt: (§1) [table] a) Seeds of monocotyledonous and dicotyledonous weed plants and crop plants are placed in plastic or organic plant pots and covered with soil. The compounds of the invention, formulated in the form of wettable powders (WP) or as emulsion concentrates (EC), are then applied onto the surface of the covering soil as aqueous suspension or emulsion with addition of 0.5% additive at a water application rate of 600 1/ha (converted). After the treatment, the pots are placed in a greenhouse and kept under good growth conditions for the trial plants. After about 3 weeks, the effect of the preparations is scored visually in comparison with untreated controls as percentages. For example, 100% activity=the plants have died, 0% activity=like control plants. Tables B1 to B15 below show the effects of selected compounds of the general formula (I) according to Tables 1 and 2 on various harmful plants and an application rate corresponding to 320 g/ha and/or 80 g/ha, which were obtained by the experimental procedure mentioned above.

[2] = system: ABUTH; experiment: Herbicidal post-emergence action 1a (greenhouse pots, visual rating); format: in vivo, Abutilon theophrasti; conditions: dosage 80 g/ha, visual rating about 3 weeks after treatment
Method: (§2) [table] a) Seeds of monocotyledonous and dicotyledonous weeds and crop plants are placed in sandy loam in plastic or organic plant pots, covered with soil and cultivated in a greenhouse under controlled growth conditions. 2 to 3 weeks after sowing, the test plants are treated at the one-leaf stage. The compounds of the invention, formulated in the form of wettable powders (WP) or as emulsion concentrates (EC), are then sprayed onto the green parts of the plants as aqueous suspension or emulsion with addition of 0.5% additive at a water application rate of 600 1/ha (converted). After the test plants have been kept in the greenhouse under optimum growth conditions for about 3 weeks, the activity of the preparations is rated visually in comparison to untreated controls. For example, 100% activity=the plants have died, 0% activity=like control plants. Tables A1 to A15 below show the effects of selected compounds of the general formula (I) according to Tables 1 and 2 on various harmful plants and an application rate corresponding to 320 g/ha and/or 80 g/ha, which were obtained by the experimental procedure mentioned above.

[3] = system: AMARE; experiment: as above; format: in vivo, Amaranthus retroflexus; conditions: dosage 80 g/ha, visual rating about 3 weeks after treatment
Method: as §2

[4] = system: POLCO; experiment: as above; format: in vivo, Polygonum convolvulus; conditions: dosage 80 g/ha, visual rating about 3 weeks after treatment
Method: as §2

[5] = system: VERPE; experiment: as above; format: in vivo, Veronica persica; conditions: dosage 80 g/ha, visual rating about 3 weeks after treatment
Method: as §2

[6] = system: ECHCG; experiment: Herbicidal pre-emergence action 2b (doubly sown, 1280 g/ha); format: in vivo, Echinochloa crus-galli; conditions: doubly sown pots, dosage 1280 g/ha, visual scoring after about 3 weeks
Excerpt: (§3) [table] b) Seeds of mono- and dicotyledonous weed plants are placed in plastic pots in sandy loam soil (doubly sown with one species each of mono- or dicotyledonous weed plants per pot) and covered with soil. The compounds of the invention, formulated in the form of wettable powders (WP) or as emulsion concentrates (EC), are then applied onto the surface of the covering soil as aqueous suspension or emulsion with addition of 0.5% additive at a water application rate equivalent to 600 litres per hectare. After the treatment, the pots are placed in a greenhouse and kept under good growth conditions for the trial plants. After about 3 weeks, the effect of the preparations is scored visually in comparison with untreated controls as percentages. For example, 100% activity=the plants have died, 0% activity=like control plants. Tables B16 to B21 below show the effects of selected compounds of the general formula (I) according to Tables 1 and 2 on various harmful plants and at an application rate corresponding to 1280 g/ha, which were obtained by the experimental procedure mentioned above.

[7] = system: AMARE; experiment: as above; format: in vivo, Amaranthus retroflexus; conditions: doubly sown pots, dosage 1280 g/ha, visual scoring after about 3 weeks
Excerpt: as §3

[8] = system: POAAN; experiment: Herbicidal post-emergence action 1b (twin sowing, 1280 g/ha); format: in vivo, Poa annua; conditions: dosage 1280 g/ha, visual rating about 3 weeks after treatment
Method: [table] b) Seeds of mono- and dicotyledonous weed plants are placed in plastic pots in sandy loam soil (twin sowing with one species each of mono- or dicotyledonous weed plants per pot), covered with soil and cultivated in a greenhouse under controlled growth conditions. 2 to 3 weeks after sowing, the test plants are treated at the one-leaf stage. The compounds of the invention, formulated in the form of wettable powders (WP) or as emulsion concentrates (EC), are applied to the green parts of the plants as aqueous suspension or emulsion with addition of 0.5% additive at a water application rate equivalent to 600 litres per hectare. After the test plants have been kept in the greenhouse under optimum growth conditions for about 3 weeks, the activity of the preparations is rated visually in comparison to untreated controls. For example, 100% activity=the plants have died, 0% activity=like control plants. Tables A16 to A21 below show the effects of selected compounds of the general formula (I) according to Tables 1 and 2 on various harmful plants and at an application rate corresponding to 1280 g/ha, which were obtained by the experimental procedure mentioned above.

[9] = system: POAAN; experiment: Herbicidal pre-emergence action 2b (doubly sown, 1280 g/ha); format: in vivo, Poa annua; conditions: doubly sown pots, dosage 1280 g/ha, visual scoring after about 3 weeks
Excerpt: as §3

[10] = system: STEME; experiment: as above; format: in vivo, Stellaria media; conditions: doubly sown pots, dosage 1280 g/ha, visual scoring after about 3 weeks
Excerpt: as §3

[11] = system: PHBPU; experiment: Herbicidal post-emergence action 1a (greenhouse pots, visual rating); format: in vivo, Pharbitis purpurea; conditions: dosage 80 g/ha, visual rating about 3 weeks after treatment
Method: as §2

[12] = system: MATIN; experiment: Herbicidal pre-emergence action 2b (doubly sown, 1280 g/ha); format: in vivo, Matricaria inodora; conditions: doubly sown pots, dosage 1280 g/ha, visual scoring after about 3 weeks
Excerpt: as §3

[13] = system: VERPE; experiment: Herbicidal pre-emergence action 2a (greenhouse pots, visual scoring); format: in vivo, Veronica persica; conditions: dosage 320 g/ha, visual scoring after about 3 weeks vs untreated controls
Excerpt: as §1

[14] = system: VIOTR; experiment: Herbicidal post-emergence action 1a (greenhouse pots, visual rating); format: in vivo, Viola tricolor; conditions: dosage 320 g/ha, visual rating about 3 weeks after treatment
Method: as §2

[15] = system: LOLRI; experiment: Herbicidal pre-emergence action 2a (greenhouse pots, visual scoring); format: in vivo, Lolium rigidum; conditions: dosage 320 g/ha, visual scoring after about 3 weeks vs untreated controls
Excerpt: as §1

SMILES: COC(=O)CCNC(=O)[C@@H](C)Oc1nn(-c2cnccn2)c(-c2ccc(F)nc2)c1Br [II-02]
- Pre-emergence action against ALOMY in % [1]: 80%

SMILES: CCOC(=O)CCNC(=O)COc1nn(-c2cnccn2)c(-c2ccc(F)nc2)c1Br [II-09]
- Post-emergence action against ABUTH in % [2]: 90%
- Post-emergence action against AMARE in % [3]: 90%
- Post-emergence action against POLCO in % [4]: 80%
- Post-emergence action against VERPE in % [5]: 90%

SMILES: COC(=O)COc1nn(-c2cnccn2)c(-c2ccc(F)c(F)c2)c1C#N [Example I-23]
- Pre-emergence action at 1280 g/ha against ECHCG in % [6]: 100%
- Pre-emergence action at 1280 g/ha against AMARE in % [7]: 100%

SMILES: COC(=O)C(C)Oc1nn(-c2cnccn2)c(-c2ccccc2)c1Br (racemic) [Example I-19]
- Post-emergence action at 1280 g/ha against POAAN in % [8]: 100%
- Pre-emergence action at 1280 g/ha against POAAN in % [9]: 100%
- Pre-emergence action at 1280 g/ha against AMARE in % [7]: 100%
- Pre-emergence action at 1280 g/ha against STEME in % [10]: 100%

SMILES: O=C(COc1nn(-c2cnccn2)c(-c2ccc(F)nc2)c1Br)NCC1CC1 [II-10]
- Post-emergence action against AMARE in % [3]: 80%
- Post-emergence action against PHBPU in % [11]: 80%

SMILES: C=CCNC(=O)COc1nn(-c2cnccn2)c(-c2cccc(F)c2)c1Br [II-01]
- Pre-emergence action at 1280 g/ha against POAAN in % [9]: 100%
- Pre-emergence action at 1280 g/ha against ECHCG in % [6]: 90%
- Pre-emergence action at 1280 g/ha against AMARE in % [7]: 100%
- Pre-emergence action at 1280 g/ha against MATIN in % [12]: 100%
- Pre-emergence action at 1280 g/ha against STEME in % [10]: 100%

SMILES: COC(=O)[C@@H](C)Oc1nn(-c2cnccn2)c(-c2ccnnc2)c1C#N [Example I-32]
- Pre-emergence action against VERPE in % [13]: 90%

SMILES: C[C@@H](Oc1nn(-c2cnccn2)c(-c2ccc(F)nc2)c1Br)C(=O)NCC1CC1 [II-06]
- Pre-emergence action against VERPE in % [13]: 100%

SMILES: COC(=O)[C@@H](C)Oc1nn(-c2cnccn2)c(-c2cccc(F)c2)c1Br [Example 1-20]
- Post-emergence action against VIOTR in % [14]: 90%
- Pre-emergence action against LOLRI in % [15]: 100%
